Laboratory results taken from US7994222B2, “Monitoring of the inhibition of fatty acid synthesis by iodo-nitrobenzamide compounds” (BiPar Sciences, Inc., priority 2006, dated 2011).
“Also recorded” adds a separate entry of the source.

Columns and labels:
HeLa cells = test: Metabolic flux profiling with [1,2-13C2]-D-glucose tracer in cultured HeLa cells (GC/MS, MIDA); type: cell-based, human
Description: (§1) Goal: This study relates to analyzing the effect of the 3-nitro-4-iodobenzamide (compound of formula III) in vitro on cultured OVCAR-3 cells' and HeLa cells' metabolic fluxes using [1,2-^13C2]-D-glucose as the only source of glucose. The analysis includes correlating fluxes with cell growth-modifying effect, analyzing mechanism of anti-proliferative action and analyzing potential toxicity, selectivity, and efficacy. Target metabolites include glucose (culture medium and pellet glycogen), lactate (culture medium), ^13CO2 (culture medium), C:14 (myristate); C:16 (palmitate); C:18 (stearate); C:18-1 (oleate); C:20; C:22; C:24 (cell pellet), acetyl-CoA synthesis for fatty acids (cell pellet), and RNA ribose and DNA deoxyribose (cell pellet). Target fluxes include glucose uptake from culture media; lactate production from glucose (anaerobic glycolysis); ^13CO2 release from glucose via TCA cycle; glycogen synthesis; de novo fatty acid synthesis, elongation, desaturation and acetyl-CoA synthesis; and pentose cycle-RNA and DNA ribose synthesis via oxidative and non-oxidative reactions.
(§2) Materials & Methods: The tracer for this metabolic profiling study, stable isotope [1, 2-^13C2]-D-glucose, is purchased with >99% purity and 99% isotope enrichment for each position from Cambridge Isotope Laboratories, Inc. (Andover, Mass.).
(§3) Cells & cell culture: OVCAR3 and Hela cells are purchased from American Type Culture Collection (ATCC). The cells are cultured according to instructions obtained from ATCC. The cells are incubated at 37° C., 5% CO2 and 95% humidity and passed by using trypsin 0.25% (Gibco/BRL) no more than ten times after receipt from the ATCC and prior to use in this study.
(§4) Seventy-five percent confluent cultures cells are incubated in [1,2-^13C2]D-glucose-containing media (100 mg/dl total concentration=5 mM; 50% isotope enrichment—i.e. half unlabeled glucose, half labeled with the stable isotope ^13C tracer). […] Control cultures are treated with vehicle only. […] Glucose and lactate levels in the medium are measured using a Cobas Mira chemistry analyzer (Roche Diagnostics, Pleasanton, Calif., USA).
(§5) RNA ribose stable isotope studies: RNA ribose is isolated by acid hydrolysis of cellular RNA after Trizol purification of cell extracts. Total RNA amounts are assessed by spectrophotometric determination, in triplicate cultures. Ribose is derivatized to its aldonitrile acetate form using hydroxylamine in pyridine with acetic anhydride (Supelco, Bellefonte, Pa.) before mass spectral analyses. The ion cluster is monitored around the m/z 256 (carbons 1-5 of ribose) (chemical ionization, CI) and m/z 217 (carbons 3-5 of ribose) and m/z 242 (carbons 1-4 of ribose) (electron impact ionization, EI) to determine molar enrichment and the positional distribution of ^13C in ribose. By convention, the base mass of ^12C-compounds (with their derivatization agents) is given as m0 as measured by mass spectrometry (Boros L G, et al. 2002, Drug Discov. Today 7: 364-372).
(§6) Ribose molecules labeled with a single ^13C atom on the first carbon position (m1) recovered from RNA are used to gauge the ribose fraction produced by direct oxidation of glucose through the G6PD pathway. Ribose molecules labeled with ^13C on the first two carbon positions (m2) are used to measure the fraction produced by transketolase. Doubly labeled ribose molecules (m2 and m4) on the fourth and fifth carbon positions are used to measure molar fraction produced by triose phosphate isomerase and transketolase.
(§7) Lactate: Lactate from the cell culture media (0.2 ml) is extracted by ethylene chloride after acidification with HCL. Lactate is derivatized to its propylamine-heptafluorobutyrate ester form and the m/z 328 (carbons 1-3 of lactate) (chemical ionization, CI) is monitored for the detection of m1 (recycled lactate through the PC) and m2 (lactate produced by the Embden-Meyerhof-Pamas pathway) for the estimation of pentose cycle activity (Lee W N, et al. 1998, Am J Physiol 274: E843-E851). […]

OVCAR-3 cells = test: Metabolic flux profiling with [1,2-13C2]-D-glucose tracer in cultured OVCAR-3 cells (GC/MS, MIDA); type: cell-based, human
Description: as §1, §2, §3, §4, §5, §6, §7

glycogen phosphorylase = conditions: in the presence or absence of glucose; human cells; cited from earlier work
tumor tissue = conditions: in vivo; cited from earlier work
cancer cells = cancer cells with highly active fatty acid synthesis; cited from earlier work
[1] = cited from earlier work

NC(=O)c1ccc(I)c([N+](=O)[O-])c1 [3-nitro-4-iodobenzamide]
De novo synthesis of arachidic acid (C:20) (HeLa cells; HeLa cells): spared from the inhibitory action
Oxidation of glucose into CO2 and ATP production in the TCA cycle (HeLa cells; HeLa cells): not affected
acetyl-CoA contribution from glucose to long chain saturated fatty acids (C:20-C:24) (HeLa cells; HeLa cells): dose-dependent increase
contribution to acetyl-CoA synthesis from glucose (C:14-C:18 fatty acids) (HeLa cells; HeLa cells): low
substrate (glucose) uptake and activation (phosphorylation) (HeLa cells; HeLa cells): no inhibitory effect
toxic effects on cell energy production, nucleic acid turnover and glycogen synthesis (HeLa cells; HeLa cells): no toxic effects
medium and long chain fatty acid (C:14-C:18) de novo synthesis from glucose (HeLa cells; HeLa cells, dose-responsive): decreased
cell membrane formation via limited de novo fatty acid synthesis (HeLa cells; HeLa cells, mechanism of anti-proliferative action): decreases
Acetyl-CoA enrichment/formation from glucose for arachidic acid synthesis (HeLa cells; HeLa cultures): high and increases
myristate (C:14) synthesis (HeLa cells; Hela cells, 3 and 10 μM, 13C-labeled myristate at 72 hours, FIGS. 3A and B): inhibit
oleate (C:18-1) synthesis (HeLa cells; Hela cells, 3 and 10 μM, 13C-labeled oleate at 72 hours, FIGS. 6A and B): inhibit
palmitate (C:16) synthesis (HeLa cells; Hela cells, 3 and 10 μM, 13C-labeled palmitate at 72 hours, FIGS. 4A and B): inhibit
stearate (C:18) synthesis (HeLa cells; Hela cells, 3 and 10 μM, 13C-labeled stearate at 72 hours, FIGS. 5A and B): inhibit
C:22 fatty acid synthesis (HeLa cells; Hela cells, 3 and 10 μM, 72 hours, FIGS. 7A and B): inhibit
C:24 fatty acid synthesis (HeLa cells; Hela cells, 3 and 10 μM, 72 hours, FIGS. 8A and B): inhibit
G6PDH and transketolase fluxes for DNA deoxyribose synthesis (OVCAR-3 cells): target enzymes; also recorded: inhibits
Glycogen synthesis and breakdown via the direct pathway (OVCAR-3 cells): inhibits
acetyl-CoA contribution from glucose to long chain saturated fatty acids (C:20-C:24) (OVCAR-3 cells): dose-dependent increase
toxic effects on cell energy production and nucleic acid RNA turnover (OVCAR-3 cells): no toxic effects
arachidic acid (C:20) synthesis (OVCAR-3 cells; 3 and 10 μM, 72 hours, FIGS. 9A and B): inhibit
C:22 fatty acid synthesis (OVCAR-3 cells; 3 and 10 μM, 72 hours, FIGS. 10A and B): inhibit
C:24 fatty acid synthesis (OVCAR-3 cells; 3 and 10 μM, 72 hours, FIGS. 11A and B): inhibit
cell membrane formation via limited de novo long chain (C:20-C:24) fatty acid synthesis (OVCAR-3 cells; mechanism of anti-proliferative action): decreases
glycogen phosphorylase activity (glycogen phosphorylase): effectively controls

C=C1C(=O)OC(CCCCCCCC)C1C(=O)O (stereo not shown) [C75]
anti-tumor activity (tumor tissue): anti-tumor activity
fatty acid synthesis in tumor tissue (tumor tissue): inhibition

C/C=C/C/C=C/CCC(=O)[C@H]1O[C@H]1C(N)=O [cerulenin]
effect on cancer cells in vitro (cancer cells): cell death by means of apoptosis
in vivo activity [1]: limited in vivo activity
